In ChEMBL document CHEMBL3882242, “Synthesis and biological evaluation of analogs of the antimitotic marine natural product curacin A” (2002):
The source made the active and inactive calls. No cut-off for these calls is given here.

Assays:
MCF7 [1] = assay: Antimitotic activity in human MCF7 cells assessed as increase in mitotic index at 7.8 to 1000 nM measured after 14 to 16 hrs by immunohistochemical analysis; assay type: functional, cell-based
[2] = Growth inhibition of human MDA-MB-231 cells incubated for 48 hrs by MTS assay; assay type: functional; details: MDA-MB-231, 48 h
[3] = Growth inhibition of human PC3 cells incubated for 48 hrs by MTS assay; assay type: functional; details: PC-3, 48 h
[4] = Growth inhibition of human 2008 cells incubated for 48 hrs by MTS assay; assay type: functional; details: Homo sapiens, 2008, 48 h
Tubulin (Bos taurus) [5] = biological target: T1, Tubulin (Bos taurus) (UniProt Q6B856+Q862L2+Q862F3); assay: Inhibition of [3H]colchicine binding to bovine brain tubulin at 5 uM relative to control
Tubulin (Bos taurus) [6] = biological target: T1, Tubulin (Bos taurus); assay: Inhibition of [3H]colchicine binding to bovine brain tubulin at 50 uM relative to control
Tubulin (Bos taurus) [7] = biological target: T1, Tubulin (Bos taurus); assay: Inhibition of GTP/glutamate-induced bovine brain tubulin polymerization at 5 uM by […]
[8] = Growth inhibition of human MDA-MB-231 cells incubated for 96 hrs by MTS assay; assay type: functional; details: MDA-MB-231, 96 h
[9] = Growth inhibition of human PC3 cells incubated for 96 hrs by MTS assay; assay type: functional; details: PC-3, 96 h
[10] = Growth inhibition of human 2008 cells incubated for 96 hrs by MTS assay; assay type: functional; details: Homo sapiens, 2008, 96 h
Tubulin (Bos taurus) [11] = biological target: T1, Tubulin (Bos taurus); assay: Inhibition of [3H]colchicin binding to bovine brain tubulin incubated at 5 uM and 30 degreeC for 10 mins in presence of GTP by scintillation spectroscopic method
Tubulin (Bos taurus) [12] = biological target: T1, Tubulin (Bos taurus); assay: Inhibition of [3H]colchicin binding to bovine brain tubulin incubated at 50 uM and 30 degreeC for 10 mins in presence of GTP by scintillation spectroscopic method
MCF7 [13] = assay: Antimitotic activity in human MCF7 cells assessed as chromatin condensation at 7.8 to 1000 nM measured after 14 to 16 hrs by immunohistochemical analysis; assay type: functional, cell-based
MCF7 [14] = assay: Antimitotic activity in human MCF7 cells assessed as increase in core histone phosphorylation at 7.8 to 1000 nM measured after 14 to 16 hrs by immunohistochemical analysis; assay type: functional, cell-based
MCF7 [15] = assay: Antimitotic activity in human MCF7 cells assessed as induction of cell rounding at 7.8 to 1000 nM measured after 14 to 16 hrs by immunohistochemical analysis; assay type: functional, cell-based
MCF7 [16] = assay: Antimitotic activity in human MCF7 cells assessed as disruption of microtubules at 7.8 to 1000 nM measured after 14 to 16 hrs by immunohistochemical analysis; assay type: functional, cell-based

| SMILES | GI50 [2] [nM] | GI50 [3] [nM] | GI50 [4] [nM] | inhibition (Tubulin (Bos taurus) [5]) [%] | inhibition (Tubulin (Bos taurus) [6]) [%] | inhibition (Tubulin (Bos taurus) [7]) [%] | GI50 [8] [nM] | GI50 [9] [nM] | GI50 [10] [nM] | inhibition (Tubulin (Bos taurus) [11]) [%] | inhibition (Tubulin (Bos taurus) [12]) [%] | further results |
| --- | --- | --- | --- | --- | --- | --- | --- | --- | --- | --- | --- | --- |
| COc1cc(/C=C\CC/C=C/C=C(\C)CCC(O)c2cccs2)cc(OC)c1OC (stereo not given) | 151 to 280 | 366 to 380 | 280 to 311 | 9.9 | 59 | > 100 | 214 | 1020 |  |  |  | Activity (MCF7 [1]): Active |
| C=CC[C@@H](CC/C(C)=C/C=C/CC/C=C\c1coc(C(C)(C)C)n1)OC |  |  |  |  |  |  |  | > 50000 | > 50000 | 7 | 7 |  |
| COc1cc(/C=N\OC/C=C/C=C(\C)CCC(O)c2cccs2)cc(OC)c1OC (stereo not given) |  |  |  |  |  | 100 |  |  |  |  | 57 |  |
| COc1cc(/C=N\OC[C@@H]2C[C@H]2CCC(C)c2cccs2)cc(OC)c1OC (stereo not given in full) | > 50000 | > 50000 | > 50000 |  |  |  | > 50000 | > 50000 | > 50000 | -10 | 18 |  |
| COc1ccc(/C=C\CC/C=C/C=C(\C)CCC(O)c2cc(OC)ccc2OC)c(OC)c1 (stereo not given) |  | > 50000 |  |  |  |  |  | > 50000 |  |  |  |  |
| COc1cc(/C=C\CC/C=C/C=C(\C)CCC(O)c2ccco2)cc(OC)c1OC (stereo not given) |  |  |  |  |  |  |  |  |  |  |  | Activity (MCF7 [1]): Active |
| C=CC[C@@H](CC/C(C)=C/C=C/CC/C=C\c1csc(C(C)(C)C)n1)OC |  |  |  |  |  | 100 |  |  |  | 38 | 43 |  |
| COc1cc(/C=C\CC/C=C/C=C(\C)CCC(O)c2cc3ccccc3o2)cc(OC)c1OC (stereo not given) | 86 to 120 | 310 to 596 |  | 12.5 | 68.7 | 74.6 | 204 | 1120 | 199 |  |  |  |
| COc1ccc(/C=C\CC/C=C/C=C(\C)CCC(O)c2cc3ccccc3s2)c(OC)c1 (stereo not given) | > 50000 | > 50000 |  |  | < 26.4 |  |  | > 50000 |  |  |  |  |
| COc1ccc(/C=C\CC/C=C/C=C(\C)CCC(O)c2ccccc2OC)c(OC)c1 (stereo not given) | > 50000 | > 50000 |  |  |  |  |  | > 50000 |  |  |  |  |
| C=CC[C@@H](CC[C@@]1(C)C[C@H]1[C@H]1C[C@@H]1CC/C=C\[C@@H]1CSC([C@@H]2C[C@@H]2C)=N1)OC | > 50000 | > 50000 | > 50000 |  |  | 0 | > 50000 | > 50000 | > 50000 | 9 |  |  |
| COc1ccccc1C(O)CC/C(C)=C/C=C/CC/C=C\c1cc(OC)c(OC)c(OC)c1 (stereo not given) | 243 to 340 | 620 to 933 | 314 to 330 | 5 | 73 | > 100 | 221 |  | 268 |  |  | Activity (MCF7 [1]): Active |
| COc1ccc(/C=C\CC/C=C/C=C(\C)CCC(O)c2ccco2)c(OC)c1 (stereo not given) |  | > 50000 |  |  |  |  |  | > 50000 |  |  |  |  |
| C=CC[C@@H](CC/C(C)=C/C=C/CC/C=C\[C@@H]1CSC([C@@H]2C[C@@H]2C)=N1)OC [CURACIN A] | 96 to 186 |  |  | 84.9 to 95 | 96.2 to 97.7 | 97.9 to 98 |  |  |  |  |  |  |
| C=CC[C@@H](CC/C(C)=C/C=C/CC/C=C\[C@@H]1CSC(C(C)(C)C)=N1)OC |  |  |  |  |  | 100 |  |  |  | 35 | 63 |  |
| COc1cc(/C=N\OC[C@H]2C[C@@H]2[C@@H]2C[C@]2(C)CCC(O)c2cccs2)cc(OC)c1OC (stereo not given in full) | 980 | 1200 | 9900 |  |  | 26 | 15000 | 8800 | 39000 | -9 | -1 |  |
| C=CC[C@@H](CC/C(C)=C/C=C/CC/C=C\[C@@H]1COC(C(C)(C)C)=N1)OC |  |  |  |  |  | 0 |  |  |  | 14 | 80 |  |
| COc1cc(/C=C\CC/C=C/C=C(\C)CCC(O)c2cc3ccccc3s2)cc(OC)c1OC (stereo not given) | 83 to 230 | 620 to 875 | 360 to 380 | 30.2 |  | > 100 | 1280 | 1220 | 235 |  |  | Activity (MCF7 [1]): Active; Activity (MCF7 [13]): Active; Activity (MCF7 [14]): Active; Activity (MCF7 [15]): Active; Activity (MCF7 [16]): Active |
| COc1ccc(OC)c(C(O)CC/C(C)=C/C=C/CC/C=C\c2cc(OC)c(OC)c(OC)c2)c1 (stereo not given) |  |  |  | 0.7 | 20.3 | 3.5 | 8730 |  |  |  |  |  |
| C=CC[C@@H](CC/C(C)=C/C=C/CC/C=C\[C@@H]1COC(/C=C/c2ccccc2)=N1)OC |  |  |  |  |  |  |  |  |  | 9 |  |  |
